According to ChEMBL document CHEMBL1124074, “Bile acids with a cyclopropyl-containing side chain. 3. Separation, identification, and properties of all four stereoisomers of 3 alpha,7 beta-dihydroxy-22,23-methylene-5 beta-cholan-24-oic acid” (J Med Chem, 1988):

Legend:
[1] = Critical micellar concentration was measured in water by the dye solubilization method; type: ADME; conditions: buffer
[2] = pKa value was evaluated; type: physicochemical

Structure (SMILES) | CMC [1] | pKa [2]
C[C@H](CCC(=O)O)[C@H]1CC[C@H]2[C@@H]3[C@@H](O)C[C@@H]4C[C@H](O)CC[C@]4(C)[C@H]3CC[C@]12C [URSODIOL] | 19 mM | –
CC(C1CC[C@H]2[C@@H]3[C@@H](O)CC4C[C@H](O)CCC4(C)[C@H]3CCC12C)[C@@H]1C[C@@H]1C(=O)O (some centres undefined) | 25 mM | 5.04
C[C@H]([C@H]1C[C@H]1C(=O)O)[C@H]1CC[C@H]2[C@@H]3[C@@H](O)CC4C[C@H](O)CC[C@]4(C)[C@H]3CC[C@]12C (some centres undefined) | 10 mM | 5.04
CC(C1CC[C@H]2[C@@H]3[C@@H](O)CC4C[C@H](O)CCC4(C)[C@H]3CCC12C)[C@H]1C[C@H]1C(=O)O (some centres undefined) | 20 mM | 5.05
C[C@H]([C@@H]1C[C@@H]1C(=O)O)[C@H]1CC[C@H]2[C@@H]3[C@@H](O)CC4C[C@H](O)CC[C@]4(C)[C@H]3CC[C@]12C (some centres undefined) | 14 mM | 5.02
